Our source for the TGI values is PubChem BioAssay (NCI).

The structures appear in SMILES notation.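 96-well plates; 48 h exposure; 5 concentrations. Endpoints by linear interpolation between flanking doses. Not reached: highest tested concentration assigned. The concentration for full growth arrest is given as TGI.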 A value given as a limit tells only on which side of the number the result lay.

Among the test systems are SK-MEL-2 melanoma; OVCAR-8 ovarian; UO-31 renal; K-562 leukemia; OVCAR-3 ovarian; HT29 colon; RXF 393 renal; HOP-92 NSCLC; SR leukemia; NCI/ADR-RES ovarian; HCT-15 colon; COLO 205 colon; U251 CNS.
What all share (assay): NCI-60 cell line screen, 48 h

`COc1cc(NC(C)c2ccc3c(c2)OCCO3)cc(OC)c1OC` (stereo unspecified): the TGI with SK-MEL-2 melanoma was 79.8 µM; in the assay with OVCAR-8 ovarian it was greater than 100 µM; with UO-31 renal, greater than 100 µM; in the assay on K-562 leukemia, greater than 100 µM; in the assay on OVCAR-3 ovarian it was greater than 100 µM; with HT29 colon it was greater than 100 µM. The TGI with RXF 393 renal was greater than 100 µM; in the assay on HOP-92 NSCLC, greater than 100 µM; in the assay with SR leukemia, greater than 100 µM; in the assay on NCI/ADR-RES ovarian, 91.4 µM; with HCT-15 colon it was greater than 100 µM; in the assay with COLO 205 colon, 71.8 µM. Moreover, the TGI in the assay on U251 CNS stood at 94.1 µM.

Take `COc1cccc2c1C(=O)C1=C(C2=O)C(O)CC(C)(C)O1` (stereo unspecified): the TGI in the assay on SK-MEL-2 melanoma is greater than 100 µM; in the assay on OVCAR-8 ovarian it was 91.5 µM; in the assay on UO-31 renal, greater than 100 µM; in the assay on K-562 leukemia, 50.3 µM; in the assay with OVCAR-3 ovarian it was 40.5 µM; in the assay on HT29 colon, greater than 100 µM. Further, the TGI in the assay with RXF 393 renal is greater than 100 µM; in the assay on HOP-92 NSCLC, greater than 100 µM; in the assay with SR leukemia, 46.3 µM; in the assay with NCI/ADR-RES ovarian it was 75.7 µM; in the assay with HCT-15 colon, greater than 100 µM; in the assay on COLO 205 colon, 54 µM. This compound also came in with a TGI in the assay on U251 CNS greater than 100 µM.

`CC(=O)Nc1oc(C)c(C)c1S(=O)(=O)c1ccc(Cl)cc1`: the TGI was 85.6 µM with SK-MEL-2 melanoma; greater than 100 µM in the assay with OVCAR-8 ovarian; greater than 100 µM in the assay with UO-31 renal; greater than 100 µM in the assay on K-562 leukemia; greater than 100 µM with OVCAR-3 ovarian; greater than 100 µM with HT29 colon. In addition, the TGI in the assay with RXF 393 renal, in the assay with HOP-92 NSCLC, in the assay with SR leukemia, in the assay with NCI/ADR-RES ovarian, in the assay on HCT-15 colon and with COLO 205 colon was greater than 100 µM throughout. This compound also had a TGI in the assay on U251 CNS greater than 100 µM.

As to `CN(C)CCNc1ccc([N+](=O)[O-])c2sc3ccccc3c(=O)c12`, the TGI in the assay with SK-MEL-2 melanoma is 27.9 µM; in the assay with OVCAR-8 ovarian, 19.9 µM; in the assay on UO-31 renal it was 30.8 µM; with K-562 leukemia, greater than 100 µM; in the assay on OVCAR-3 ovarian it was 32.6 µM; in the assay on HT29 colon, 32.1 µM. For the same compound, the TGI with RXF 393 renal came to 38.1 µM; in the assay with HOP-92 NSCLC, 51.2 µM; with SR leukemia it was 22.9 µM; in the assay on NCI/ADR-RES ovarian, 54.2 µM; in the assay with HCT-15 colon, 23.6 µM; in the assay on COLO 205 colon, 14.3 µM. The same compound returned a TGI with U251 CNS greater than 100 µM.

With `Cn1c(=O)c2c3ccccc3n(C)c2n(C)c1=O`, the TGI in the assay with SK-MEL-2 melanoma, in the assay with OVCAR-8 ovarian, with UO-31 renal, in the assay on K-562 leukemia, in the assay on OVCAR-3 ovarian and in the assay with HT29 colon was greater than 100 µM throughout. Also, the TGI in the assay with RXF 393 renal, in the assay with HOP-92 NSCLC, in the assay on SR leukemia, in the assay with NCI/ADR-RES ovarian, with HCT-15 colon and in the assay on COLO 205 colon was greater than 100 µM each time. In the assay with U251 CNS, this compound displayed a TGI greater than 100 µM.

For `Cn1c2ccc([N+](=O)[O-])cc2c(=O)n1Cc1ccccc1F`, the TGI in the assay with SK-MEL-2 melanoma, in the assay on OVCAR-8 ovarian, with UO-31 renal, with K-562 leukemia, in the assay with OVCAR-3 ovarian and in the assay on HT29 colon was greater than 100 µM each time. In addition, the TGI with RXF 393 renal is greater than 100 µM; in the assay on HOP-92 NSCLC, 91.6 µM; in the assay on SR leukemia, greater than 100 µM; with NCI/ADR-RES ovarian, 76.3 µM; with HCT-15 colon it was greater than 100 µM; with COLO 205 colon, greater than 100 µM. In the assay with U251 CNS, this compound displayed a TGI greater than 100 µM.

For `C1=CC2C=CC(C=C1)P2c1ccccc1` (stereo unspecified), the TGI in the assay with SK-MEL-2 melanoma, in the assay on OVCAR-8 ovarian, in the assay with UO-31 renal, with K-562 leukemia, in the assay with OVCAR-3 ovarian and in the assay with HT29 colon was greater than 100 µM throughout. The TGI in the assay on RXF 393 renal, in the assay with HOP-92 NSCLC, in the assay with SR leukemia, in the assay on NCI/ADR-RES ovarian, with HCT-15 colon and in the assay on COLO 205 colon was greater than 100 µM each time. In the assay with U251 CNS, the TGI was greater than 100 µM.
